# Where “and” joins values, the source holds several entries; their conditions need not be identical. Equal values may be shown once.
# Key:
# Format in all cases: cell-based
# [1] = target: T1, 318 nonolfactory human GPCRs (Homo sapiens, UniProt P25105); settings: PTAFR; C21 5 µM
# T1 construct: expressed in transfected cells; host or cells: HTLA cells, transient
# [2] = target: T2, 318 nonolfactory human GPCRs (Homo sapiens, UniProt Q9BZJ6); settings: GPR63; C21 5 µM
# T2 construct: expressed in transfected cells; host or cells: HTLA cells, transient
# [3] = target: T3, 318 nonolfactory human GPCRs (Homo sapiens, UniProt Q9Y2T6); settings: GPR55; C21 5 µM
# T3 construct: expressed in transfected cells; host or cells: HTLA cells, transient
# [4] = target: T4, 318 nonolfactory human GPCRs (Homo sapiens, UniProt Q9H1Y3); settings: OPN3; C21 5 µM
# T4 construct: expressed in transfected cells; host or cells: HTLA cells, transient
# [5] = target: T5, 318 nonolfactory human GPCRs (Homo sapiens, UniProt Q96P68); settings: OXGR1; C21 5 µM
# T5 construct: expressed in transfected cells; host or cells: HTLA cells, transient
# [6] = target: T6, 318 nonolfactory human GPCRs (Homo sapiens, UniProt Q8NFN8); settings: GPR156; C21 5 µM
# T6 construct: expressed in transfected cells; host or cells: HTLA cells, transient
# T6 sequence (Q8NFN8 whole entry): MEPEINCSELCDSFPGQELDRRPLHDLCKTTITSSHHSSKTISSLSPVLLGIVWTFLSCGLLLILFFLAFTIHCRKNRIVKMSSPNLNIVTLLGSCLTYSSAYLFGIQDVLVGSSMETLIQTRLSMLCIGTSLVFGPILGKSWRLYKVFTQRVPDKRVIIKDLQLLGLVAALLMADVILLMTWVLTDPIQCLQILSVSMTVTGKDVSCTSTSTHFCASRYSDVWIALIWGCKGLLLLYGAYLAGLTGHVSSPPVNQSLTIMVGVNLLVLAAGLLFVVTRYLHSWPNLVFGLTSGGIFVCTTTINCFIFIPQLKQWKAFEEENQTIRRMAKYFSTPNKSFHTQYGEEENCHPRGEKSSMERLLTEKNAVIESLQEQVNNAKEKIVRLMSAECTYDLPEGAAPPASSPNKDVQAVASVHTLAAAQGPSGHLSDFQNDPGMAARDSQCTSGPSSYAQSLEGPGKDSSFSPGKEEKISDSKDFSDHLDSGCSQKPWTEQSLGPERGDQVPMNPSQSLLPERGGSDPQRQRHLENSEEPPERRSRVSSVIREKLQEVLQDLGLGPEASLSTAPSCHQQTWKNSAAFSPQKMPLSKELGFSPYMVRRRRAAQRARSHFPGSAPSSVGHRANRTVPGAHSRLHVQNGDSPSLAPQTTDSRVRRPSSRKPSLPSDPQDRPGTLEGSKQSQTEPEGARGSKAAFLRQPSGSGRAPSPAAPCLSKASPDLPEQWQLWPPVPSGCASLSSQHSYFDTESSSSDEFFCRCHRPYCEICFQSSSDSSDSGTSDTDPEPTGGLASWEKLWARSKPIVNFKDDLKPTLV
# [7] = target: T7, 318 nonolfactory human GPCRs (Homo sapiens, UniProt P47898); settings: HTR5; C21 5 µM
# T7 construct: expressed in transfected cells; host or cells: HTLA cells, transient
# T7 sequence (P47898 whole entry): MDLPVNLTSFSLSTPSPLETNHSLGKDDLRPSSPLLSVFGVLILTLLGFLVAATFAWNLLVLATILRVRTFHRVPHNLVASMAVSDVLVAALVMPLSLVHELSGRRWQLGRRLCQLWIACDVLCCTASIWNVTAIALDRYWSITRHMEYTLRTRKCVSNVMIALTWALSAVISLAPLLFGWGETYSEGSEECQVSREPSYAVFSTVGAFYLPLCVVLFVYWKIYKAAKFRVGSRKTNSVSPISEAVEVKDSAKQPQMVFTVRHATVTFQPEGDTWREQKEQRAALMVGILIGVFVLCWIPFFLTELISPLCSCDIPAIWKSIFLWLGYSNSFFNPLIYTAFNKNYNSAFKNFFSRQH
# [8] = target: T8, 318 nonolfactory human GPCRs (Homo sapiens, UniProt P29371); settings: TACR3; C21 5 µM
# T8 construct: expressed in transfected cells; host or cells: HTLA cells, transient
# [9] = target: T9, 318 nonolfactory human GPCRs (Homo sapiens, UniProt Q96AM1); settings: MRGPRF; C21 5 µM
# T9 construct: expressed in transfected cells; host or cells: HTLA cells, transient
# T9 sequence (Q96AM1 whole entry): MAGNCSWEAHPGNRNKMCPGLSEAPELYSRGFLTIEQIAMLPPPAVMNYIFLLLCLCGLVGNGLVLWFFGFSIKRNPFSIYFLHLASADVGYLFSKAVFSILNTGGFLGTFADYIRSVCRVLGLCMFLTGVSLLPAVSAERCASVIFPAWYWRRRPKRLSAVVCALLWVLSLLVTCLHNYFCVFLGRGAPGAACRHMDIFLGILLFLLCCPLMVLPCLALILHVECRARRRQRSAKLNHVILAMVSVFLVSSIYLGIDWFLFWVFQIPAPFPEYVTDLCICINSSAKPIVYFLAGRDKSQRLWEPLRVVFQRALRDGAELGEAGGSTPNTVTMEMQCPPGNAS
# [10] = target: T10, 318 nonolfactory human GPCRs (Homo sapiens, UniProt P41594); settings: GRM5; C21 5 µM
# T10 construct: expressed in transfected cells; host or cells: HTLA cells, transient
# [11] = target: 318 nonolfactory human GPCRs (Homo sapiens, UniProt P35462); settings: DRD3; C21 5 µM
# 318 nonolfactory human GPCRs (Homo sapiens, UniProt P35462), sequence (P35462 whole entry): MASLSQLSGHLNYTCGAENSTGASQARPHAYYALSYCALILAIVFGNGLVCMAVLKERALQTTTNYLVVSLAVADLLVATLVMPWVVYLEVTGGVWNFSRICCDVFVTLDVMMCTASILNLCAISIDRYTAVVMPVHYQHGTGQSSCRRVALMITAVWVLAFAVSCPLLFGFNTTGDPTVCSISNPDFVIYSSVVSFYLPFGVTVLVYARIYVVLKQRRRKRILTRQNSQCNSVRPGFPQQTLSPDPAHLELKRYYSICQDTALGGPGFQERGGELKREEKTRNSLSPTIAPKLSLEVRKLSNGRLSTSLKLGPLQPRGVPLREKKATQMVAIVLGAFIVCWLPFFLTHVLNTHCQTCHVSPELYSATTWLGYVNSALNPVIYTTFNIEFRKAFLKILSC
# [12] = target: 318 nonolfactory human GPCRs (Homo sapiens, UniProt P14416); settings: DRD2; C21 5 µM
# [13] = target: T11, 318 nonolfactory human GPCRs (Homo sapiens, UniProt Q9P1P5); settings: TAAR2; C21 5 µM
# T11 construct: expressed in transfected cells; host or cells: HTLA cells, transient
# T11 sequence (Q9P1P5 whole entry): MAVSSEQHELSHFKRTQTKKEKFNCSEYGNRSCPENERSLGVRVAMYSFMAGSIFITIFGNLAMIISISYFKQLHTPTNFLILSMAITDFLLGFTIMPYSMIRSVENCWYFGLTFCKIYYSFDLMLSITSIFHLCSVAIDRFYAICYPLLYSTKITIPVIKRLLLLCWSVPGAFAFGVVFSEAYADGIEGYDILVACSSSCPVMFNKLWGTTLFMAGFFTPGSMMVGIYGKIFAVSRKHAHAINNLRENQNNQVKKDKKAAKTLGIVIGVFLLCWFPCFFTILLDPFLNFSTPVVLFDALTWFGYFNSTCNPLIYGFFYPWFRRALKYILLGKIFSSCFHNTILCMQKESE
# [14] = target: T12, 318 nonolfactory human GPCRs (Homo sapiens, UniProt Q99679); settings: GPR21; C21 5 µM
# T12 construct: expressed in transfected cells; host or cells: HTLA cells, transient
# [15] = target: T13, 318 nonolfactory human GPCRs (Homo sapiens, UniProt Q9H3N8); settings: HRH4; C21 5 µM
# T13 construct: expressed in transfected cells; host or cells: HTLA cells, transient
# [16] = target: 318 nonolfactory human GPCRs (Homo sapiens, UniProt P28335, I156V/I160V); settings: HTR2C VNV; C21 5 µM
# [17] = target: T14, 318 nonolfactory human GPCRs (Homo sapiens, UniProt Q9GZQ6); settings: NPFF1; C21 5 µM
# T14 construct: expressed in transfected cells; host or cells: HTLA cells, transient
# T14 sequence (Q9GZQ6 whole entry): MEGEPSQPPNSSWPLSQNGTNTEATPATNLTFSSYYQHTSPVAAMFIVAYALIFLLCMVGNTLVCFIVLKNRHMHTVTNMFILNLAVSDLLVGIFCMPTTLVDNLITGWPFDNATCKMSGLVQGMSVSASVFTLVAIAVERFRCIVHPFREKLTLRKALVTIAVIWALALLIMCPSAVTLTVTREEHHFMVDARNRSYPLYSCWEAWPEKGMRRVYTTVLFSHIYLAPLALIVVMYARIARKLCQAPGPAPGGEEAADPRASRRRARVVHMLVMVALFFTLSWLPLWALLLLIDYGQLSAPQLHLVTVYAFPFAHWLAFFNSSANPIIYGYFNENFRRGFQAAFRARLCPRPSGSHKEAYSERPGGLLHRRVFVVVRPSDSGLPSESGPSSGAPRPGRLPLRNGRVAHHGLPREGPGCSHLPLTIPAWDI
# [18] = target: T15, 318 nonolfactory human GPCRs (Homo sapiens, UniProt Q14439); settings: GPR176; C21 5 µM
# T15 construct: expressed in transfected cells; host or cells: HTLA cells, transient
# [19] = target: T16, 318 nonolfactory human GPCRs (Homo sapiens, UniProt Q9H244); settings: P2RY12; C21 5 µM
# T16 construct: expressed in transfected cells; host or cells: HTLA cells, transient
# T16 sequence (Q9H244 whole entry): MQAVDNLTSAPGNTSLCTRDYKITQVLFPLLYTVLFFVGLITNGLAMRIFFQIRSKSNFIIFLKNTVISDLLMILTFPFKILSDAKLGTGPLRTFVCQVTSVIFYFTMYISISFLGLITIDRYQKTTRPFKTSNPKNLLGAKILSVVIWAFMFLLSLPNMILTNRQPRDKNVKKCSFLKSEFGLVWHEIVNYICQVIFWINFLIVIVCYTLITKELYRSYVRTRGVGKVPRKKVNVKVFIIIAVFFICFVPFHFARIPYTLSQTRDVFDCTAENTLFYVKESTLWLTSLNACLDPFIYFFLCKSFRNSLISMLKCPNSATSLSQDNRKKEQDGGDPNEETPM
# [20] = target: T17, 318 nonolfactory human GPCRs (Homo sapiens, UniProt Q9Y5N1); settings: HRH3; C21 5 µM
# T17 construct: expressed in transfected cells; host or cells: HTLA cells, transient
# T17 sequence (Q9Y5N1 whole entry): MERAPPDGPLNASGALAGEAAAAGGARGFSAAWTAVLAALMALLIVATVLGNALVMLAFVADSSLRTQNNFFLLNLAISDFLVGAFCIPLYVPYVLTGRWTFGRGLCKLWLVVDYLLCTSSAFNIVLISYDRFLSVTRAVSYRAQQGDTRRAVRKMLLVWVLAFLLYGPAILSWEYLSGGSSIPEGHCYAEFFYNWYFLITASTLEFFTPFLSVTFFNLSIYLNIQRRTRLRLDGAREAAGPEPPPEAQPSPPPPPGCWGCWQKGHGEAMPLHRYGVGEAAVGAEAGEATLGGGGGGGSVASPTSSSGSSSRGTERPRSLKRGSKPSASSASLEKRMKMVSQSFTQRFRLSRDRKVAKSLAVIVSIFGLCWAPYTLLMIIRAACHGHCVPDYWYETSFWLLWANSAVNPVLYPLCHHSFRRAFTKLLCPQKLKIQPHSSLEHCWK
# [21] = target: T18, 318 nonolfactory human GPCRs (Homo sapiens, UniProt O15354); settings: GPR37; C21 5 µM
# T18 construct: expressed in transfected cells; host or cells: HTLA cells, transient
# [22] = target: 318 nonolfactory human GPCRs (Homo sapiens, UniProt Q96PE1); settings: GPR124; C21 5 µM
# [23] = target: T19, 318 nonolfactory human GPCRs (Homo sapiens, UniProt Q15391); settings: P2RY14; C21 5 µM
# T19 construct: expressed in transfected cells; host or cells: HTLA cells, transient
# [24] = target: 318 nonolfactory human GPCRs (Homo sapiens, UniProt P48546); settings: GIPR; C21 5 µM
# [25] = target: T20, 318 nonolfactory human GPCRs (Homo sapiens, UniProt P28336); settings: NMBR; C21 5 µM
# T20 construct: expressed in transfected cells; host or cells: HTLA cells, transient
# T20 sequence (P28336 whole entry): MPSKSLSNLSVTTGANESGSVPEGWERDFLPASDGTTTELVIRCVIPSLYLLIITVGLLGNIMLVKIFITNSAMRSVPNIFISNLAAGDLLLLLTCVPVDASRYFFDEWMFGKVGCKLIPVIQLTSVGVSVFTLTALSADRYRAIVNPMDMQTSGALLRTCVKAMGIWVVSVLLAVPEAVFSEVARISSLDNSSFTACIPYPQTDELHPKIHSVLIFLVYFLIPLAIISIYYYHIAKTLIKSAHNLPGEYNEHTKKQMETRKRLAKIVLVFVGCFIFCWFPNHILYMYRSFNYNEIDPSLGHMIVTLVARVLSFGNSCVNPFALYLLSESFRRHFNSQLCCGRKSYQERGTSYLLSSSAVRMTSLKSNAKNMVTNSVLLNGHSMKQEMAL
# [26] = target: T21, 318 nonolfactory human GPCRs (Homo sapiens, UniProt O95838); settings: GLP2R; C21 5 µM
# T21 construct: expressed in transfected cells; host or cells: HTLA cells, transient
# [27] = target: T22, 318 nonolfactory human GPCRs (Homo sapiens, UniProt Q9P296); settings: GPR77; C21 5 µM
# T22 construct: expressed in transfected cells; host or cells: HTLA cells, transient
# [28] = target: T23, 318 nonolfactory human GPCRs (Homo sapiens, UniProt Q99677); settings: LPA4; C21 5 µM
# T23 construct: expressed in transfected cells; host or cells: HTLA cells, transient
# [29] = target: T24, 318 nonolfactory human GPCRs (Homo sapiens, UniProt P33032); settings: MC5R; C21 5 µM
# T24 construct: expressed in transfected cells; host or cells: HTLA cells, transient
# [30] = target: T25, 318 nonolfactory human GPCRs (Homo sapiens, UniProt Q9GZN0); settings: GPR88; C21 5 µM
# T25 construct: expressed in transfected cells; host or cells: HTLA cells, transient
# [31] = target: T26, 318 nonolfactory human GPCRs (Homo sapiens, UniProt Q15077); settings: P2RY6; C21 5 µM
# T26 construct: expressed in transfected cells; host or cells: HTLA cells, transient
# [32] = target: T27, 318 nonolfactory human GPCRs (Homo sapiens, UniProt Q9BXC0); settings: HCA1; C21 5 µM
# T27 construct: expressed in transfected cells; host or cells: HTLA cells, transient
# T27 sequence (Q9BXC0 whole entry): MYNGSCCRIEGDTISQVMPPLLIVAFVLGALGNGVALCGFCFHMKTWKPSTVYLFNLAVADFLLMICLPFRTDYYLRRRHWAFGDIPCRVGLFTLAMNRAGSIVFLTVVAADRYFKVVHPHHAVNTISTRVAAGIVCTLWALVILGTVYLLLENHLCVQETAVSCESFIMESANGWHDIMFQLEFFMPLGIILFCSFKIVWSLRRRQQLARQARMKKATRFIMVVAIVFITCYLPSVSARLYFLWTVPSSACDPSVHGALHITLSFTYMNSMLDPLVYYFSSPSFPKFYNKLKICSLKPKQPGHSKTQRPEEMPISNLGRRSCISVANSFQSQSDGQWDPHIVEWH
# [33] = target: T28, 318 nonolfactory human GPCRs (Homo sapiens, UniProt P04201); settings: MAS1; C21 5 µM
# T28 construct: expressed in transfected cells; host or cells: HTLA cells, transient
# [34] = target: T29, 318 nonolfactory human GPCRs (Homo sapiens, UniProt Q99527); settings: GPER; C21 5 µM
# T29 construct: expressed in transfected cells; host or cells: HTLA cells, transient
# T29 sequence (Q99527 whole entry): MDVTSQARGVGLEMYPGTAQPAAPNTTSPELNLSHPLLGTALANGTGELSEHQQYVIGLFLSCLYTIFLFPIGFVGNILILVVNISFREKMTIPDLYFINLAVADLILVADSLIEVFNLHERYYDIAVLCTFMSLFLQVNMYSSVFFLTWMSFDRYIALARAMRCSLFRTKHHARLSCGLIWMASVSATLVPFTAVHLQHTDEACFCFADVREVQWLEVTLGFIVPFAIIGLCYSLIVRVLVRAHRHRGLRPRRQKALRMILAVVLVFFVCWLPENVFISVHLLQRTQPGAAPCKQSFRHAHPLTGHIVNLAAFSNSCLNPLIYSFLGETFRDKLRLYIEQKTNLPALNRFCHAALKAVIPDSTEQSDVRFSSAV
# T1 sequence (P25105 whole entry): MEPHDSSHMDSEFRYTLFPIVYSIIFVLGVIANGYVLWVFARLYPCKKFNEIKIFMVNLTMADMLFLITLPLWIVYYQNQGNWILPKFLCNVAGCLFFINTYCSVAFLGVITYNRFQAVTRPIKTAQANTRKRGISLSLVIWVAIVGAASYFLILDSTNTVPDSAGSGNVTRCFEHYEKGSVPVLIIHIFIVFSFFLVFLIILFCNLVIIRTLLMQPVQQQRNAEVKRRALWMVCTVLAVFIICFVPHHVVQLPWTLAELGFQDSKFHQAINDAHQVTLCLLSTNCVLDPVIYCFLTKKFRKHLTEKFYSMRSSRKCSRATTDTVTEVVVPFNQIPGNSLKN
smiles,measurement,setting,value
"c1ccc2c(c1)N=C(N1CCNCC1)c1ccccc1N2 [C21, 11-(1-piperazinyl)-5H-dibenzo[b,e][1,4]diazepine]",FOLD OVER BASAL,[1],0.8 fold and 0.7 fold and 1.1 fold
same,FOLD OVER BASAL,[2],0.6 fold and 0.5 fold and 0.9 fold
same,FOLD OVER BASAL,[3],0.7 fold and 1 fold and 0.8 fold
same,FOLD OVER BASAL,[4],1.1 fold and 0.7 fold and 0.9 fold and 0.6 fold
same,FOLD OVER BASAL,[5],0.7 fold and 0.6 fold and 1.2 fold
same,FOLD OVER BASAL,[6],1.1 fold and 0.9 fold and 1.4 fold
same,FOLD OVER BASAL,[7],0.9 fold and 1 fold and 0.8 fold
same,FOLD OVER BASAL,[8],1.2 fold and 0.8 fold and 0.6 fold and 0.7 fold
same,FOLD OVER BASAL,[9],1.4 fold and 1.3 fold and 1 fold and 0.7 fold
same,FOLD OVER BASAL,[10],1.1 fold and 0.7 fold
same,FOLD OVER BASAL,[11],3.6 fold and 4.2 fold and 3.3 fold and 5.4 fold
same,FOLD OVER BASAL,[12],8.7 fold and 13.6 fold and 9.4 fold and 16.1 fold
same,FOLD OVER BASAL,[13],1.1 fold and 1 fold and 0.7 fold and 0.9 fold
same,FOLD OVER BASAL,[14],0.9 fold and 0.8 fold and 1.2 fold and 0.7 fold
same,FOLD OVER BASAL,[15],6.3 fold and 4 fold and 5.7 fold and 3.8 fold
same,FOLD OVER BASAL,[16],0.4 fold and 0.3 fold
same,FOLD OVER BASAL,[17],1.5 fold and 1.1 fold and 1.2 fold
same,FOLD OVER BASAL,[18],0.3 fold and 0.6 fold and 0.5 fold and 0.4 fold
same,FOLD OVER BASAL,[19],0.6 fold and 1 fold and 0.5 fold and 0.8 fold
same,FOLD OVER BASAL,[20],1.3 fold and 0.9 fold and 0.8 fold
same,FOLD OVER BASAL,[21],1.1 fold and 0.9 fold and 1.2 fold and 0.7 fold
same,FOLD OVER BASAL,[22],1 fold and 0.7 fold
same,FOLD OVER BASAL,[23],0.9 fold and 0.7 fold and 1.1 fold and 0.8 fold
same,FOLD OVER BASAL,[24],0.3 fold and 0.4 fold
same,FOLD OVER BASAL,[25],1 fold and 0.6 fold and 0.8 fold
same,FOLD OVER BASAL,[26],0.7 fold and 0.8 fold and 0.5 fold and 0.9 fold
same,FOLD OVER BASAL,[27],0.7 fold and 0.6 fold
same,FOLD OVER BASAL,[28],1.2 fold and 1.1 fold and 0.8 fold
same,FOLD OVER BASAL,[29],1.2 fold and 0.9 fold and 1.3 fold and 1 fold
same,FOLD OVER BASAL,[30],1.1 fold and 1.9 fold and 1.5 fold
same,FOLD OVER BASAL,[31],1.4 fold and 0.8 fold and 1.3 fold
same,FOLD OVER BASAL,[32],1.8 fold and 1.3 fold and 1.7 fold and 0.9 fold
same,FOLD OVER BASAL,[33],1.1 fold and 0.9 fold and 1 fold
same,FOLD OVER BASAL,[34],0.4 fold and 0.2 fold and 0.3 fold
